Measurements reported in patent US11447504B2, “Macrocyclic chlorine substituted indole derivatives” (Bayer Aktiengesellschaft, priority 2017, dated 2022).
Where a name gives a salt, the structure may show the parent alone. Read-outs that look alike come from different tables or passages of the source.

Legend:
SUDHL5 [1] = test: Induction of cytotoxicity (Assay 6), SUDHL5
SUDHL5 [2] = test: Induction of caspase-3/7 activity (Assay 4), SUDHL5; type: cell-based; details: SUDHL5 cells
Method in brief: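 DLBCL cells treated with compounds for 3 hours at 37° C. Caspase-3/7 activity measured by Caspase-Glo 3/7 luminescence, with medium-only background subtracted.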

[3] = molecular target: full length endogenous MCL1 protein (Homo sapiens (Human), UniProt Q07820); test: PIxEL: protein-protein interaction in permeabilized cells by ELISA (Assay 5); type: cell-based; details: permeabilized RKO cells, biotin-BIM BH3 peptide, read-out: PIxEL IC50 (median)
Experimental: PIxEL: Protein-Protein Interaction in Permeabilized Cells by ELISA
Most MCL1 protein molecules are localized at the mitochondria outer membrane and sequester pro-apoptotic proteins through binding of their BCL2 homology domain 3 (BH3 domain). MEB buffer (150 mM mannitol, 10 mM HEPES pH 7.5, 50 mM KCl, 20 μM EDTA, 20 μM EGTA, 5 mM potassium succinate, 0.1% protease-free BSA (SIGMA) with low dose digitonin (0.002%) permeabilizes plasma membrane while leaves live mitochondria, where MCL1 maintains its native localization and conformation. Unlike biophysical assays (e.g. TR-FRET) that use truncated recombinant MCL1 protein, this assay uses full length endogenous MCL1 protein at mitochondria outer membrane. It measures the interaction between MCL1 protein and biotinylated BIM BH3 peptide. Compounds can compete with BIM BH3 peptide to bind to MCL1 protein. This serum free assay measures the affinity between MCL1 protein and compound in permeabilized cells, therefore it is not affected by serum binding and cell permeability, and can measure the intrinsic compound affinity.
On day 1, RKO colon cancer cell line cells were plated at 0.8 million cells/ml, 100 μl/well in 96-well flat bottom TC plates (Corning). MCL1 antibody (Santa Cruz sc-12756) were diluted at 200 fold (final concentration 1 μg/ml) in carbonate buffer (Thermo Fisher Scientific, pH 9.6), and 50 μl of diluted antibody was added to each well of high bind ELISA plates ([…]). Each plate was tapped to make sure liquid covering entire bottom of wells and incubate at 37° C. overnight.
On the second day, MCL1 antibody was washed from ELISA plate. 250 μl Odyssey® Blocking Buffer (PBS) (Li-Cor) was added to each well, incubated at room temperature for at least 1 hour, then washed once with 250 μl 1×PBST. Plates with RKO cells were gently washed once with 100 μl/well PBS, once with 100 μl/well MEB buffer without digitonin, then 100 μl of MEB buffer with 0.002% digitonin was gently added to each well. Compounds were added with HP Tecan compound dispenser in 3-fold dilution series, highest dose 30 μM, 10-dose per compound in quadruplicates. Biotin-BIM peptide (synthesized by 21st Century) was added with HP Tecan compound dispenser at 0.2 μM immediately after the addition of compounds. Plates were rocked for 1 h at room temperature. Then MEB buffer was aspirated and 50 μl of CHAPS buffer (50 mM Tris-Cl, pH 7.4, 150 mM NaCl, 1% CHAPS, 1 mM EDTA, 1 mM EGTA, complete protease inhibitors (Roche), PhosSTOP (Roche)) was added to each well. […]
On the third day, ELISA plates were washed once with 250 μl 1×PBST. […] Plates were shaken for 1 minute then luminescence was measured by Envision plate reader (HP). […] IC50 was calculated using Graphic Pad PRISM software.

BCL-XL = BCL-XL (Homo sapiens (Human), UniProt Q07817); test: Protein-protein interaction assay BCL-XL/Bad BH3 peptide (BCL-XL Assay, TR-FRET); type: binding; details: read-out: BCL-XL Assay IC50 (median)
[4] = read-out: Cytotox SUDHL5 IC50 (median), SUDHL5 cells, 5 hours, CellTiter-Glo
[5] = 3 hours, Caspase-Glo 3/7, read-out: Caspase SUDHL5 EC50 (median)

Chain of full length endogenous MCL1 protein (Q07820 whole entry): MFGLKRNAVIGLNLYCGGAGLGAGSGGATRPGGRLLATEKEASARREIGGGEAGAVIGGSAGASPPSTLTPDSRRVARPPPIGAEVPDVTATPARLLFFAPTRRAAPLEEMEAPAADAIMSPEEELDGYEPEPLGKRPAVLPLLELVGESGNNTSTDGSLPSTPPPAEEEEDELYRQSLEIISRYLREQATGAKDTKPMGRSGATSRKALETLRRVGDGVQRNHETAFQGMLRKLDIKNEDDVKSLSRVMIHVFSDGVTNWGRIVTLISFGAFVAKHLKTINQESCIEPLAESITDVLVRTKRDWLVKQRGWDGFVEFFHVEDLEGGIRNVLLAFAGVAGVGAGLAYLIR
Chain of BCL-XL (Q07817 other isoform, or with tags, fused parts or gaps): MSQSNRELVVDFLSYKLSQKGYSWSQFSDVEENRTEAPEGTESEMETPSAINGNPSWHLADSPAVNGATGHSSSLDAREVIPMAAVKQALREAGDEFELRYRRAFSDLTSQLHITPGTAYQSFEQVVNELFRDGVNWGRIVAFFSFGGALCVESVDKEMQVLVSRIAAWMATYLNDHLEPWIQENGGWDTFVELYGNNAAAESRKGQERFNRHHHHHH

EC50 (SUDHL5 [2]; Homo sapiens, SU-DHL-5, 3 h, Caspase-Glo 3/7, read-out: Caspase SUDHL5 EC50 (median)) [nM]	IC50 ([3]; printed in uM) [µM]	IC50 (BCL-XL) [nM]	EC50 (SUDHL5 [2]; [5]) [nM]	IC50 [3] [µM]	Structure (SMILES)	IC50 (SUDHL5 [1]; Homo sapiens, SU-DHL-5, 5 h, read-out: Cytotox SUDHL5 IC50 (median), SUDHL5 cells, 5 hours, CellTiter-Glo) [nM]	IC50 (SUDHL5 [1]; [4]) [nM]
690	> 30	> 20000	–	–	Cc1c2c(nn1C)N(C)CCCCCn1c(C(=O)O)c(CCCOc3cccc4ccccc34)c3ccc(Cl)c-2c31 (racemic) [Example 71, (rac)-4-chloro-2,3,15-trimethyl-7-{3-[(naphthalen-1-yl)oxy]propyl}-10,11,12,13,14,15-hexahydro-2H-pyrazolo[4′,3′:4,5][1,6]diazacycloundecino[3,2,1-hi]indole-8-carboxylic acid]	690	–
–	–	> 20000	710	0.214	Cc1c2c(nn1C)N(C)CCCCCn1c(C(=O)O)c(CCCOc3cccc4cc(F)ccc34)c3ccc(Cl)c-2c31 (racemic) [Example 74, (rac)-4-chloro-7-{3-[(6-fluoronaphthalen-1-yl)oxy]propyl}-2,3,15-trimethyl-10,11,12,13,14,15-hexahydro-2H-pyrazolo[4′,3′:4,5][1,6]diazacycloundecino[3,2,1-hi]indole-8-carboxylic acid]	–	1000
–	–	> 20000	400	0.037	CCc1c2c(nn1C)N(C)CCCCCn1c(C(=O)O)c(CCCOc3cccc4cc(F)ccc34)c3ccc(Cl)c-2c31 (single isomer, unassigned; enantiomer 1) [Example 78, 4-chloro-3-ethyl-7-{3-[(6-fluoronaphthalen-1-yl)oxy]propyl}-2,15-dimethyl-10,11,12,13,14,15-hexahydro-2H-pyrazolo[4′,3′:4,5][1,6]diazacycloundecino[3,2,1-hi]indole-8-carboxylic acid-N-ethylethanamine Salt—Enantiomer 1]	–	310
–	–	> 20000	330	0.146	Cc1c2c(nn1C)N(C)CCCCCn1c(C(=O)O)c(CCCOc3cccc4cc(F)ccc34)c3ccc(Cl)c-2c31 [Example 75, (+)-4-chloro-7-{3-[(6-fluoronaphthalen-1-yl)oxy]propyl}-2,3,15-trimethyl-10,11,12,13,14,15-hexahydro-2H-pyrazolo[4′,3′:4,5][1,6]diazacycloundecino[3,2,1-hi]indole-8-carboxylic acid-N-ethylethanamine salt]	–	380
